Experimental data as given in US11759791B2, “Jet milling method” (VECTURA LIMITED, priority 2015, dated 2023).

Assay: Particle size analysis (wet analysis), Malvern Mastersizer 3000 Hydro MV
Type: physicochemical
Conditions: unmicronised / as supplied, wet analysis method
Description: […] The pump speed was set to 3000 rpm. […] The dispersed particles were added to the dispersion unit to reach an obscuration of 5-15%. The optical properties used included a refractive index of 1.52 and an absorption value of 1.0 for the glycopyrrolate, and a refractive index of 1.45 and an absorption value of 1.0 for the magnesium stearate and a refractive index of 1.391 for the iso-octane. Six replicates were performed per measurement.

| Compound | D10 particle size of source powder | D50 particle size of source powder | D90 particle size of source powder |
| --- | --- | --- | --- |
| C[N+]1(C)CCC(OC(=O)C(O)(c2ccccc2)C2CCCC2)C1 (stereo not drawn) [Unmicronised glycopyrrolate, glycopyrrolate] | 20.6 μm | 148.7 μm | 409.7 μm |
| magnesium stearate | 2.8 μm | 8.8 μm | 27.4 μm |
